Data published in patent publication US20250092013A1, “PRODRUGS OF AXITINIB” (OCULAR THERAPEUTIX, INC., priority 2021, published 2025).
Converted amounts (≈) assume the structure as drawn.

How the values were obtained:
[1] = Solubility testing in phosphate buffer saline pH 7.4 (HPLC with calibration curve); format: physicochemical
Procedure: Solubility testing was performed with the following test items and conditions: • Test items: axitinib (99.99% purity by HPLC); axitinib-N-succinoyloxymethyl prodrug (94.3% purity by HPLC); • Test media: phosphate buffer saline pH 7.4 • Incubation condition: 24 hour at 22° C. with continuous shaking • Test concentration: 1 mg/mL • Data analysis: Solubility of test item was determined by HPLC analysis with calibration curve

[2] = cited from earlier work

Row | Compound | Solubility ([1]; phosphate buffer saline pH 7.4, 24 hour at 22° C. with continuous shaking, test concentration 1 mg/mL) [µg/mL] | solubility of the prodrug enhanced (fold vs axitinib) ([1]; relative to literature reported solubility of axitinib (about 0.2 mcg/mL)) [×] | literature reported solubility [2] | solubility at 24 h ([1]; 22 °C, pH 7.4, aqueous buffer, thermodynamic from solid) [µg/mL]
1 | CNC(=O)c1ccccc1Sc1ccc2c(/C=C/c3ccccn3)nn(COC(=O)CCC(=O)O)c2c1 [N-Succinoyloxymethyl Prodrug, axitinib-N-succinoyloxymethyl] | 217.4 (≈ 421 µM) | ~1100 | – | –
2 | CNC(=O)c1ccccc1Sc1ccc2c(/C=C/c3ccccn3)n[nH]c2c1 [Axitinib, axitinib] | – | – | about 0.2 mcg/mL | < 0.78
